From ChEMBL document CHEMBL1122771, “Effects of volume and surface property in hydrolysis by acetylcholinesterase. The trimethyl site” (J Med Chem, 1984) come the findings set out here.

Series [1] in a line: Compound was tested for hydrolysis by acetylcholinesterase and the kinetic constant (kcat) which is a first-order rate constant was determined.
The test system of series [2] is acetylcholinesterase. Put plainly: Compound was tested for hydrolysis by acetylcholinesterase and the kinetic constant, (Km) an apparent dissociation constant, and related to the enzyme's affinity for the substrate was reported. The class given is ADME.
Series [3] has as its system acetylcholinesterase. Put plainly: in vitro.

With `CC(=O)OCCC(C)(C)C`, the k cat in series [1] was 66 s⁻¹. In addition, the Km with acetylcholinesterase [2] is 5.3 mM.

On to `CC(=O)OCC[N+](C)(C)C` [ACETYLCHOLINE], for which the k cat in series [1] came to 160 s⁻¹. The Michaelis-Menten constant (Km) in the series on acetylcholinesterase [2] was found to be 0.33 mM.

`CC(=O)OCCC(C)C` gave a k cat in series [1] of 3400 s⁻¹. Besides, the Michaelis constant (Km) in the series on acetylcholinesterase [3] (acetylcholinesterase) was 3.6 mM.

The molecule `CC(=O)OCC[N+](C)(C)[O-]` returned a k cat in series [1] of 4500 s⁻¹. Moreover, the Km in the series on acetylcholinesterase [3] (acetylcholinesterase) stood at 18 mM.

For the molecule `CC(=O)OCC[S+](C)C.[Br-]`, in series [1], the k cat stood at 7700 s⁻¹. The Km with acetylcholinesterase [3] (acetylcholinesterase) stood at 0.33 mM.

`CCCCOC(C)=O` [ACETIC ACID BUTYL ESTER] displayed a k cat in series [1] of 36 s⁻¹. In addition, the Km in the series with acetylcholinesterase [3] was 13 mM.

In the case of `CSCCOC(C)=O`, the k cat in series [1] turned out to be 3500 s⁻¹. Further, in the series with acetylcholinesterase [3] (acetylcholinesterase), the Michaelis-Menten constant (Km) came out at 15 mM.

`CC(=O)OCCS(C)(=O)=O`: the k cat in series [1] came to 11 s⁻¹. In addition, the Km with acetylcholinesterase [2] came out at 6.2 mM.

As to `CC(=O)OCCBr`, in series [1], the k cat turned out to be 4500 s⁻¹. In addition, in the series with acetylcholinesterase [3] (acetylcholinesterase), the Km came to 7.5 mM.

In turn, `CC(=O)OCC[S+](C)[O-]` (stereo not given) gave a k cat in series [1] of 3800 s⁻¹. For the same molecule, the Km in the series on acetylcholinesterase [3] (acetylcholinesterase) was 16 mM.

Turning to `CC(=O)OCCCl`, in series [1], the k cat amounted to 3400 s⁻¹. Further, the Km with acetylcholinesterase [3] (acetylcholinesterase) turned out to be 14 mM.

Molecule `CC(=O)OCC[Si](C)(C)C` had a k cat in series [1] of 5700 s⁻¹. Besides, in the series with acetylcholinesterase [3] (acetylcholinesterase), the Michaelis-Menten constant (Km) is 3.5 mM.

The molecule `CCOC(C)=O` [ETHYL ACETATE] had a k cat in series [1] of 2900 s⁻¹.
